Here are results for twelve compounds from patent US12539292B2, “BRM targeting compounds and associated methods of use” (Arvinas Operations, Inc., priority 2018, dated 2026).

Usually DC50 stands for the concentration at which degradation of the target reaches its halfway point. The term Dmax denotes the largest share of the target that was removed.

The target of the experiment is T1, BRM (Homo sapiens, UniProt P51531).
T1 construct: In-Cell Western Screen of BRM Degradation in SW1573 Cells; endogenous in cells; host or cells: SW1573
Put plainly: In-cell Western screen of BRM degradation in SW1573 cells (Dmax and DC50). Conditions: BRM degradation, SW1573 cells; for DC50: read-out: DC50; for Dmax: read-out: Dmax (% degraded). The experiment is classed as cell-based. The essentials: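 SW1573 cells were treated with compound overnight (18-20 h; final DMSO 0.1%), then fixed in 4% PFA, permeabilized with Triton X-100 and blocked. BRM was detected by in-cell Western using 800 nm anti-rabbit and 680 nm anti-mouse secondaries, and Dmax and DC50 were derived from the LI-COR Odyssey signal.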

Molecules are shown by their SMILES.

T1 sequence (P51531 whole entry): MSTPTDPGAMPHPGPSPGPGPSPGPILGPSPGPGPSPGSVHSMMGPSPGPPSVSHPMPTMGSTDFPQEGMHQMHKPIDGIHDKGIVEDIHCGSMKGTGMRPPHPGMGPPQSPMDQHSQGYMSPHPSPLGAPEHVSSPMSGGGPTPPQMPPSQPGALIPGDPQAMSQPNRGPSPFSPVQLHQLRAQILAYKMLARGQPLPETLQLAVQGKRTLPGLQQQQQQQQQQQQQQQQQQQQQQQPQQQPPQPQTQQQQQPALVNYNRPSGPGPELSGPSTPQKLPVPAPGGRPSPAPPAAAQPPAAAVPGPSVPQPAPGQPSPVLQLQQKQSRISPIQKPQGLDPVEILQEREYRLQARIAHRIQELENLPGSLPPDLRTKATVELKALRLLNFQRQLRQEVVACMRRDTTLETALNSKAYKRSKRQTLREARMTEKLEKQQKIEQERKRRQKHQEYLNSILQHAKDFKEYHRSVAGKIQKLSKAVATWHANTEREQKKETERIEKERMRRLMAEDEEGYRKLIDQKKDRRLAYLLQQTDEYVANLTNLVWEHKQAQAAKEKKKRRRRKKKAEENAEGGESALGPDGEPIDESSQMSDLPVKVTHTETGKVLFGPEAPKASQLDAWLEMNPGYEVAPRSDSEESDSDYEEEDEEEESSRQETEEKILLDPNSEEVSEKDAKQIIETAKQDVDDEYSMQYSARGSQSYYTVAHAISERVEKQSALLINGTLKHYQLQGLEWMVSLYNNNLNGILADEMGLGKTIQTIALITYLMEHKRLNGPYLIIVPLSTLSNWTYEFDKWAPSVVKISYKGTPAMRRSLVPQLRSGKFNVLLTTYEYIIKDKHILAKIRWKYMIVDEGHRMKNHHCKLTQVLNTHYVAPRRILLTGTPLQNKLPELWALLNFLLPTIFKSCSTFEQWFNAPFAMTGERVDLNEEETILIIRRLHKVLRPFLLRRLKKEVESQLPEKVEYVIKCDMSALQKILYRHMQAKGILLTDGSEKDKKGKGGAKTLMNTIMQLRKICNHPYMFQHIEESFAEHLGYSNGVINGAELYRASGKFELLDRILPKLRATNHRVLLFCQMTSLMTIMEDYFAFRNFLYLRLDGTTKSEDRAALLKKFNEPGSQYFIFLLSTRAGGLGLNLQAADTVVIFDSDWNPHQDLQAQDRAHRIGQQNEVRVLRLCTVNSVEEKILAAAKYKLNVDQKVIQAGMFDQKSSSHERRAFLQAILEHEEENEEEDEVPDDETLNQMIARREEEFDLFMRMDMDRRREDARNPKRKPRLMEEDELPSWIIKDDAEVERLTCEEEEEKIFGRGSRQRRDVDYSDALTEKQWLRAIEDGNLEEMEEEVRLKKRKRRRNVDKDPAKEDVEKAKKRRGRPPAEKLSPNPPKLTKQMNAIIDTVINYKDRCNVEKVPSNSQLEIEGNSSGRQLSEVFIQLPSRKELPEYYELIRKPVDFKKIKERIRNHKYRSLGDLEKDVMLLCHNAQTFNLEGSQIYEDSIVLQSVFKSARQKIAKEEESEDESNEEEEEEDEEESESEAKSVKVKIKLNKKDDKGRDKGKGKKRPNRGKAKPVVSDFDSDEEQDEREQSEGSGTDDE

For `COCC[C@H](NC(=O)[C@@H]1C[C@@H](O)CN1C(=O)[C@@H](c1cc(N2CCC(CN3CCC(O[C@H]4C[C@H](Oc5cc(N6C7CCC6CN(c6cc(-c8ccccc8O)nnc6N)C7)ccn5)C4)CC3)CC2)no1)C(C)C)c1ccc(-c2scnc2C)cc1` [compound 670, (2S,4R)-1-((2R)-2-(3-(4-((4-((1r,3r)-3-((4-(3-(3-amino-6-(2-hydroxyphenyl)pyridazin-4-yl)-3,8-diazabicyclo[3.2.1]octan-8-yl)pyridin-2-yl)oxy)cyclobutoxy)piperidin-1-yl)methyl)piperidin-1-yl)isoxazol-5-yl)-3-methylbutanoyl)-4-hydroxy-N-((S)-3-methoxy-1-(4-(4-methylthiazol-5-yl)phenyl)propyl)pyrrolidine-2-carboxamide], the DC50 is under 2.5 nM and the Dmax was over 75%.

Take `Cc1ncsc1-c1ccc([C@H](CC#N)NC(=O)[C@@H]2C[C@@H](O)CN2C(=O)[C@@H](c2cc(N3CCC(CN4CCC(O[C@H]5C[C@H](Oc6cc(N7C8CCC7CN(c7cc(-c9ccccc9O)nnc7N)C8)ccn6)C5)CC4)CC3)no2)C(C)C)cc1` [compound 671, (2S,4R)-1-((2R)-2-(3-(4-((4-((1r,3r)-3-((4-(3-(3-amino-6-(2-hydroxyphenyl)pyridazin-4-yl)-3,8-diazabicyclo[3.2.1]octan-8-yl)pyridin-2-yl)oxy)cyclobutoxy)piperidin-1-yl)methyl)piperidin-1-yl)isoxazol-5-yl)-3-methylbutanoyl)-N-((S)-2-cyano-1-(4-(4-methylthiazol-5-yl)phenyl)ethyl)-4-hydroxypyrrolidine-2-carboxamide]: the DC50 is under 2.5 nM and the Dmax is over 75%.

Consider `Cc1ncsc1-c1ccc([C@H](CCC#N)NC(=O)[C@@H]2C[C@@H](O)CN2C(=O)[C@@H](c2cc(N3CCC(CN4CCC(O[C@H]5C[C@H](Oc6cc(N7C8CCC7CN(c7cc(-c9ccccc9O)nnc7N)C8)ccn6)C5)CC4)CC3)no2)C(C)C)cc1` [compound 672, (2S,4R)-1-((2R)-2-(3-(4-((4-((1r,3r)-3-((4-(3-(3-amino-6-(2-hydroxyphenyl)pyridazin-4-yl)-3,8-diazabicyclo[3.2.1]octan-8-yl)pyridin-2-yl)oxy)cyclobutoxy)piperidin-1-yl)methyl)piperidin-1-yl)isoxazol-5-yl)-3-methylbutanoyl)-N-((S)-3-cyano-1-(4-(4-methylthiazol-5-yl)phenyl)propyl)-4-hydroxypyrrolidine-2-carboxamide], for which the DC50 is under 2.5 nM and the Dmax is over 75%.

Take `Cc1ncsc1-c1ccc([C@@H](CCC#N)NC(=O)[C@@H]2C[C@@H](O)CN2C(=O)[C@@H](c2cc(N3CCC(CN4CCC(O[C@H]5C[C@H](Oc6cc(N7C8CCC7CN(c7cc(-c9ccccc9O)nnc7N)C8)ccn6)C5)CC4)CC3)no2)C(C)C)cc1` [compound 673, (2S,4R)-1-((2R)-2-(3-(4-((4-((1r,3r)-3-((4-(3-(3-amino-6-(2-hydroxyphenyl)pyridazin-4-yl)-3,8-diazabicyclo[3.2.1]octan-8-yl)pyridin-2-yl)oxy)cyclobutoxy)piperidin-1-yl)methyl)piperidin-1-yl)isoxazol-5-yl)-3-methylbutanoyl)-N-((R)-3-cyano-1-(4-(4-methylthiazol-5-yl)phenyl)propyl)-4-hydroxypyrrolidine-2-carboxamide]: the DC50 was 10 to 30 nM and the Dmax is 50 to 75%.

For `Cc1ncoc1-c1ccc([C@H](C)NC(=O)[C@@H]2C[C@@H](O)CN2C(=O)[C@@H](c2cc(N3CCC(CN4CCC(O[C@H]5C[C@H](Oc6cc(N7C8CCC7CN(c7cc(-c9ccccc9O)nnc7N)C8)ccn6)C5)CC4)CC3)no2)C(C)C)cc1` [compound 674, (2S,4R)-1-((2R)-2-(3-(4-((4-((1r,3r)-3-((4-(3-(3-amino-6-(2-hydroxyphenyl)pyridazin-4-yl)-3,8-diazabicyclo[3.2.1]octan-8-yl)pyridin-2-yl)oxy)cyclobutoxy)piperidin-1-yl)methyl)piperidin-1-yl)isoxazol-5-yl)-3-methylbutanoyl)-4-hydroxy-N-((S)-1-(4-(4-methyloxazol-5-yl)phenyl)ethyl)pyrrolidine-2-carboxamide], the DC50 is under 2.5 nM and the maximal degradation (Dmax) is over 75%.

On to `Cc1ncsc1-c1ccc([C@H](C)NC(=O)[C@@H]2C[C@@H](O)CN2C(=O)[C@@H](c2cc(N3CCC(CN4CCC(O[C@H]5C[C@H](Oc6cc(N7C8CCC7CN(c7cc(-c9ccccc9O)nnc7N)C8)ccn6)C5)CC4)CC3)no2)C(C)C)cn1` [compound 675, (2S,4R)-1-((2R)-2-(3-(4-((4-((1r,3r)-3-((4-(3-(3-amino-6-(2-hydroxyphenyl)pyridazin-4-yl)-3,8-diazabicyclo[3.2.1]octan-8-yl)pyridin-2-yl)oxy)cyclobutoxy)piperidin-1-yl)methyl)piperidin-1-yl)isoxazol-5-yl)-3-methylbutanoyl)-4-hydroxy-N-((S)-1-(6-(4-methylthiazol-5-yl)pyridin-3-yl)ethyl)pyrrolidine-2-carboxamide], for which the DC50 is under 2.5 nM and the Dmax was over 75%.

For `Cc1ncsc1-c1ccc([C@H](C)NC(=O)[C@@H]2C[C@@H](O)CN2C(=O)[C@H](c2cc(N3CCC(C#CCN4CCC(Oc5cc(N6C7CCC6CN(c6cc(-c8ccccc8O)nnc6N)C7)ccn5)CC4)CC3)no2)C(C)C)cc1` [compound 676, (2S,4R)-1-((2S)-2-(3-(4-(3-(4-((4-(3-(3-amino-6-(2-hydroxyphenyl)pyridazin-4-yl)-3,8-diazabicyclo[3.2.1]octan-8-yl)pyridin-2-yl)oxy)piperidin-1-yl)prop-1-yn-1-yl)piperidin-1-yl)isoxazol-5-yl)-3-methylbutanoyl)-4-hydroxy-N-((S)-1-(4-(4-methylthiazol-5-yl)phenyl)ethyl)pyrrolidine-2-carboxamide], the DC50 lay within 2.5 to 10 nM and the Dmax is over 75%.

As to `Cc1ncsc1-c1ccc([C@H](C)NC(=O)[C@@H]2C[C@@H](O)CN2C(=O)[C@@H](c2cc(N3CCC(C#CCN4CCC(Oc5cc(N6C7CCC6CN(c6cc(-c8ccccc8O)nnc6N)C7)ccn5)CC4)CC3)no2)C(C)C)cc1` [compound 677, (2S,4R)-1-((2R)-2-(3-(4-(3-(4-((4-(3-(3-amino-6-(2-hydroxyphenyl)pyridazin-4-yl)-3,8-diazabicyclo[3.2.1]octan-8-yl)pyridin-2-yl)oxy)piperidin-1-yl)prop-1-yn-1-yl)piperidin-1-yl)isoxazol-5-yl)-3-methylbutanoyl)-4-hydroxy-N-((S)-1-(4-(4-methylthiazol-5-yl)phenyl)ethyl)pyrrolidine-2-carboxamide], the DC50 was under 2.5 nM and the Dmax is over 75%.

Consider `C#Cc1ccc([C@H](C)NC(=O)[C@@H]2C[C@@H](O)CN2C(=O)[C@@H](c2cc(N3CCC(CN4CCC(O[C@H]5C[C@H](Oc6cc(N7C8CCC7CN(c7cc(-c9ccccc9O)nnc7N)C8)ccn6)C5)CC4)CC3)no2)C(C)C)cc1` [compound 678, (2S,4R)-1-((2R)-2-(3-(4-((4-((1r,3r)-3-((4-(3-(3-amino-6-(2-hydroxyphenyl)pyridazin-4-yl)-3,8-diazabicyclo[3.2.1]octan-8-yl)pyridin-2-yl)oxy)cyclobutoxy)piperidin-1-yl)methyl)piperidin-1-yl)isoxazol-5-yl)-3-methylbutanoyl)-N-((S)-1-(4-ethynylphenyl)ethyl)-4-hydroxypyrrolidine-2-carboxamide], for which the DC50 is under 2.5 nM and the Dmax was over 75%.

Turning to `Cc1ncsc1-c1ccc([C@H](C)NC(=O)[C@@H]2C[C@@H](O)CN2C(=O)[C@@H](c2cc(N3CCC(CN4CCC(O[C@H]5C[C@H](Oc6cc(N7C8CCC7CN(c7cc(-c9ccccc9O)nnc7N)C8)ccn6)C5)CC4)CC3)no2)C(C)C)c(F)c1F` [compound 679, (2S,4R)-1-((2R)-2-(3-(4-((4-((1r,3r)-3-((4-(3-(3-amino-6-(2-hydroxyphenyl)pyridazin-4-yl)-3,8-diazabicyclo[3.2.1]octan-8-yl)pyridin-2-yl)oxy)cyclobutoxy)piperidin-1-yl)methyl)piperidin-1-yl)isoxazol-5-yl)-3-methylbutanoyl)-N-((S)-1-(2,3-difluoro-4-(4-methylthiazol-5-yl)phenyl)ethyl)-4-hydroxypyrrolidine-2-carboxamide], the DC50 was under 2.5 nM and the Dmax was over 75%.

`Cc1ncsc1-c1cc(F)c([C@H](C)NC(=O)[C@@H]2C[C@@H](O)CN2C(=O)[C@H](c2cc(N3CCC(CN4CCC(O[C@H]5C[C@H](Oc6cc(N7C8CCC7CN(c7cc(-c9ccccc9O)nnc7N)C8)ccn6)C5)CC4)CC3)no2)C(C)C)cc1F` [compound 680, (2S,4R)-1-((2S)-2-(3-(4-((4-((1r,3r)-3-((4-(3-(3-amino-6-(2-hydroxyphenyl)pyridazin-4-yl)-3,8-diazabicyclo[3.2.1]octan-8-yl)pyridin-2-yl)oxy)cyclobutoxy)piperidin-1-yl)methyl)piperidin-1-yl)isoxazol-5-yl)-3-methylbutanoyl)-N-((S)-1-(2,5-difluoro-4-(4-methylthiazol-5-yl)phenyl)ethyl)-4-hydroxypyrrolidine-2-carboxamide]: the DC50 is over 30 nM.

As to `Cc1ncsc1-c1cc(F)c([C@H](C)NC(=O)[C@@H]2C[C@@H](O)CN2C(=O)[C@@H](c2cc(N3CCC(CN4CCC(O[C@H]5C[C@H](Oc6cc(N7C8CCC7CN(c7cc(-c9ccccc9O)nnc7N)C8)ccn6)C5)CC4)CC3)no2)C(C)C)cc1F` [compound 681, (2S,4R)-1-((2R)-2-(3-(4-((4-((1r,3r)-3-((4-(3-(3-amino-6-(2-hydroxyphenyl)pyridazin-4-yl)-3,8-diazabicyclo[3.2.1]octan-8-yl)pyridin-2-yl)oxy)cyclobutoxy)piperidin-1-yl)methyl)piperidin-1-yl)isoxazol-5-yl)-3-methylbutanoyl)-N-((S)-1-(2,5-difluoro-4-(4-methylthiazol-5-yl)phenyl)ethyl)-4-hydroxypyrrolidine-2-carboxamide], the DC50 was under 2.5 nM and the Dmax was over 75%.
